Where two headings read alike, the source gives them in different places.
Experiments:
E. coli = type: cell-based, Escherichia coli; conditions: aerobic
Method: For MIC evaluations, the final results are expressed in chemical agent concentrations determined by analysis of the stock solution by HPLC (i.e., see Subsection Mb).
The minimum inhibitory concentration (MIC) was determined aerobically in a 96 well-plate format. […] Media supplements were added according to levels reported in the Supplements Table, where specified. Overnight cultures of strains were grown in triplicate in 5 mL LB (with antibiotic where appropriate). A 1% (v/v) inoculum was introduced into a 5 ml culture of M9 minimal media.

[1] = test system: Yeast strains (S288C background); type: cell-based, Saccharomyces cerevisiae
Method: The minimum inhibitory concentration (MIC) was determined anaerobically in a 96 well-plate format. […] A 1% (v/v) inoculum was introduced into a 5 ml culture of SD minimal media without vitamins. After the cells reached mid-exponential phase, the culture was diluted to an OD600 of 0.200. The cells were further diluted 1:5 and a 10 μL aliquot was used to inoculate each well of a 96 well plate (˜10^4 cells per well) to total volume of 100 uL. […] Plates were incubated for 72 hours at 30 C. […] Plates were sealed in biobag anaerobic chambers that contained gas generators for anaerobic conditions and incubated for 72 hours at 30 C.

[2] = Reactive extraction of 3-HP from fermentation broth with tertiary amine and co-solvents, single pass extraction efficiency; type: physicochemical
Method: Calcium chloride at 1 M was added as a flocculent to reach a final concentration of about 8.2 g/L. Thereafter the pH was adjusted to a pH of approximately 2.0 using sulfuric acid. Thereafter a volume of this modified fermentation broth was centrifuged at approximately 3,200 g for 5 minutes to yield a clarified broth and a pellet, which was discarded.
Portions of the clarified broth were then subjected to reactive extraction by mixing with a tertiary amine non-polar phase comprising various co-solvents.

[3] = test system: wild-type E. coli BW25113; assay: Toleragram / OD600 / doublings at 3HP 0-50 g/L, E. coli anaerobic; type: cell-based, Escherichia coli; conditions: control E. coli, anaerobic conditions, 24 hours
Method: Overnight cultures of wild-type E. coli BW25113 were grown in triplicate in 5 mL standard LB medium. 100 uL of overnight cultures were used to inoculate triplicate 5 mL samples of M9 minimal medium+3HP, containing 47.7 mM Na2HPO4, 22 mM KH2PO4, 8.6 mM NaCl, 18.7 mM NH4Cl, 2 mM MgSO4, 0.1 mM CaCl2, and 0.4% glucose, with 3HP concentrations ranging from 0-50 g/L. Starting OD600 ranged from 0.02-0.08. Cultures were sparged with CO2 for 10 seconds, sealed, and incubated at 37 C for about 24 hours. OD600 was recorded every 1-2 hours during the first 8 hours with a final OD600 recorded at about 24 hours. For each data point the sample was opened, sampled, re-sparged with CO2, and sealed once again. Maximum specific growth rates (μmax) were calculated by determining the optimal fit of exponential trend lines with OD data for the evaluation period. Specific changes in OD600 over approximately 24 hours (Δ24hrOD600) were calculated as the difference in t=24 hr and t=0 optical density, Δ24hrOD600=(ODt=24)−(ODt=0). Specific number of doublings (Nd) were calculated by solving for N in the equation 2^N=(ODt=24)/(ODt=0).

[4] = Tripentylamine with Butanol (2)
[5] = Tripentylamine with Methyl ethyl ketone (4)
[6] = Tripentylamine with Methyl tert-butyl ether (5)
[7] = Tripentylamine with p-Xylene (3)

O=C(O)CCO [3-HP, 3-hydroxypropionic acid]
% Increase Over Control (E. coli; strain BX_00301.0: BW25113 wild type + pSmart-LC-Kan-folA-C1, M9 + Kan 20 μg/mL): 40% | % Increase Over Control (E. coli; strain BX_00302.0: BW25113 wild type + pSmart-LC-Kan-folA-ORF, M9 + Kan 20 μg/mL): 20% | % Increase Over Control (E. coli; strain BX_00304.0: BW25113 wild type + pSmart-LC-Kan-menA-ORF, M9 + Kan 20 μg/mL): 40% | % Increase Over Control (E. coli; strain BX_00305.0: BW25113 wild type + pSmart-LC-Kan-pheA-C1, M9 + Kan 20 μg/mL): 40% | % Increase Over Control (E. coli; strain BX_00307.0: BW25113 wild type + pSmart-LC-Kan-tyrA-C1, M9 + Kan 20 μg/mL): 40% | % Increase Over Control (E. coli; strain BX_00309.0: BW25113 wild type + pSmart-LC-Kan-cynTS, M9 + Kan 20 μg/mL): 40% | % Increase Over Control (E. coli; strain BX_00310.0: BW25113 wild type + pSmart-LC-Kan-glyA, M9 + Kan 20 μg/mL): 40% | % Increase Over Control (E. coli; strain BX_00312.0: BW25113 wild type + pSmart-LC-Kan-serA, M9 + Kan 20 μg/mL): 40% | % Increase Over Control (E. coli; strain BX_00313.0: BW25113 wild type + pSmart-LC-Kan-folD, M9 + Kan 20 μg/mL): 20% | % Increase Over Control (E. coli; strain BX_00314.0: BW25113 wild type + pSmart-LC-Kan-aroE, M9 + Kan 20 μg/mL): 40% | % Increase Over Control (E. coli; strain BX_00315.0: BW25113 wild type + pSmart-LC-Kan-aroKB C1, M9 + Kan 20 μg/mL): 40% | % Increase Over Control (E. coli; strain BX_00317.0: BW25113 wild type + pSmart-LC-Kan-ilvA operon, M9 + Kan 20 μg/mL): 40% | % Increase Over Control (E. coli; strain BX_00318.0: BW25113 wild type + pSmart-LC-Kan-cysM, M9 + Kan 20 μg/mL): 40% | % Increase Over Control (E. coli; strain BX_00319.0: BW25113 wild type + pK223-aroH, M9 + Amp 100 μg/mL + 1 mM IPTG): 50% | % Increase Over Control (E. coli; strain BX_00321.0: BW25113 wild type + pK223-ct-his-thrA, M9 + Amp 100 μg/mL + 1 mM IPTG): 75% | % Increase Over Control (E. coli; strain BX_00322.0: BW25113 wild type + pJ61-speFED, M9 + Kan 20 μg/mL): 40% | % Increase Over Control (E. coli; strain BX_00323.0: BW25113 wild type + pJ61-aroG, M9 + Kan 20 μg/mL): 40% | % Increase Over Control (E. coli; strain BX_00324.0: BW25113 wild type + pJ61-thrA, M9 + Kan 20 μg/mL): 40% | % Increase Over Control (E. coli; strain BX_00325.0: BW25113 wild type + pJ61-asd, M9 + Kan 20 μg/mL): 40% | % Increase Over Control (E. coli; strain BX_00326.0: BW25113 wild type + pJ61-ilvA, M9 + Kan 20 μg/mL): 40% | % Increase Over Control (E. coli; strain BX_00327.0: BW25113 wild type + pJ61-cysM, M9 + Kan 20 μg/mL): 40% | % Increase Over Control (E. coli; strain BX_00334.0: BW25113 wild type + pSmart-HC-Amp-cadA, M9 + Amp 100 μg/mL): 60% | % Increase Over Control (E. coli; strain BX_00335.0: BW25113 wild type + pSmart-HC-Amp-prs, M9 + Amp 100 μg/mL): 40% | % Increase Over Control (E. coli; strain BX_00336.0: BW25113 wild type + pSmart-HC-Amp-nrdAB, M9 + Amp 100 μg/mL): 40% | % Increase Over Control (E. coli; strain BX_00337.0: BW25113 wild type + pSmart-HC-Amp-nrdEF, M9 + Amp 100 μg/mL): 40% | % Increase Over Control (E. coli; strain BX_00352.0: BW25113 wild type + pSmart-LC-Kan-metC C1, M9 + Amp 100 μg/mL): 40% | % Increase Over Control (E. coli; strain BX_00353.0: BW25113 wild type + pSmart-HC-Amp-metC, M9 + Amp 100 μg/mL): 80% | % Increase Over Control (E. coli; strain BX_00354.0: BW25113 wild type + pSmart-HC-Amp-cynTS, M9 + Amp 100 μg/mL): 80% | % Increase Over Control (E. coli; strain BX_00356.0: BW25113 wild type + pSmart-HC-Amp-LysA, M9 + Amp 100 μg/mL): 20% | % Increase Over Control (E. coli; strain BX_00357.0: BW25113 wild type + pKK223-aroH*445, M9 + Amp 100 μg/mL + 1 mM IPTG): 50% | % Increase Over Control (E. coli; strain BX_00358.0: BW25113 wild type + pKK223-aroH*447, M9 + Amp 100 μg/mL + 1 mM IPTG): 75% | % Increase Over Control (E. coli; strain BX_00359.0: BW25113 wild type + pKK223-aroH*457, M9 + Amp 100 μg/mL + 1 mM IPTG): 75% | % Increase Over Control (E. coli; strain BX_00361.0: BW25113 wild type + pACYC177 (Kan only)-cynTS, M9 + Kan 20 μg/mL): 40% | % Increase Over Control (E. coli; strain BX_00362.0: BW25113 wild type + pACYC177 (Kan only)-aroH, M9 + Kan 20 μg/mL + 1 mM IPTG): 20% | % Increase Over Control (E. coli; strain BX_00363.0: BW25113 wild type + pACYC177 (kan only)-speB, M9 + Kan 20 μg/mL): 40% | % Increase Over Control (E. coli; strain BX_00364.0: BW25113 wild type + pACYC177 (Kan only)-metE (Version1) (SS090608_13), M9 + Kan 20 μg/mL + 1 mM IPTG): 40% | % Increase Over Control (E. coli; strain BX_00365.0: BW25113 wild type + pACYC177 (Kan only)-metC (Version1) (SS090608_17), M9 + Kan 20 μg/mL): 40% | % Increase Over Control (E. coli; strain BX_00368.0: BW25113 wild type + pBT-3-cynTS, M9 + Cm (20 μg/mL)): 20% | % Increase Over Control (E. coli; strain BX_00370.0: BW25113 wild type + pBT-3-speB, M9 + Cm (20 μg/mL)): 20% | % Increase Over Control ([1]; strain YX-CJR-005 (pYes2.1-Met6) versus YX-CJR-001, anaerobic): 50% | % Increase Over Control ([1]; strain YX-CJR-008 (pyes2.1-ILV1) versus YX-CJR-001, anaerobic): 50% | 3-HP mass extractant ([2]; Alamine 336 with Butanol (1)): 0.59 G | 3-HP mass raffinate ([2]; Alamine 336 with Butanol (1)): 0.38 G | % 3-HP extracted ([2]; Alamine 336 with Butanol (1)): 61% | % 3-HP raffinate ([2]; Alamine 336 with Butanol (1)): 39% | Total 3HP extracted ([2]; Alamine 336 with Butanol (1)): 0.59 G | 3-HP mass raffinate [2, 4]: 0.81 G | % 3-HP extracted [2, 4]: 58% | % 3-HP raffinate [2, 4]: 42% | 3-HP mass raffinate [2, 5]: 0.63 G | % 3-HP extracted [2, 5]: 67% | % 3-HP raffinate [2, 5]: 33% | 3-HP mass extractant [2, 6]: 0.73 G | % 3-HP extracted [2, 6]: 38% | % 3-HP raffinate [2, 6]: 62% | Total 3HP extracted [2, 6]: 0.73 G | 3-HP mass extractant [2, 7]: 0.46 G | % 3-HP extracted [2, 7]: 24% | % 3-HP raffinate [2, 7]: 76% | Total 3HP extracted [2, 7]: 0.46 G | cell density response to 3-HP compared with aerobic condition [3]: relatively sharper and earlier drop

Source: patent publication US9388419B2 (The Regents of the University of Colorado, a body corporate, priority 2009, dated 2016)
